From patent US20260248869A1, “SILICONE GEL COMPOSITION OF WALNUT EXTRACT” (priority 2022, published 2026)

Assay: Confocal optical microscopy of Juglone penetration depth in human skin
Format: in vitro ADME
Details: epidermal region; signal disappeared at greater depths
Source text: The penetration in human skin was also studied by confocal microscopy, using the fluorescence of the Juglone molecule exciting it with light of 488 nm and observing its fluorescence in a window from 510 to 702 nm. For this penetration study, a Leica microscope, model SPE Confocal Microscope was used, with a 10×lens. The location of the Juglone molecules in depth was established with this instrument (in perpendicular direction to the skin surface). The accumulation of Juglone at different depth levels causes the appearance of areas with different fluorescence intensity and allows to observe directly where the molecule is retained. It must be noted that white Caucasian skins were chosen to prevent interferences of basal fluorescence and thus clearly observe the fluorescence of the Juglone molecule.
The transdermal permeation study was performed according to the “Guidance document for the conduct of skin absorption studies”. OECD series on testing assessment. Number 28. ENV/JM/MONO (2004) 2.5 Mar. 2004. Using Franz type cells, of 1.80 cm in diameter, and a surface of 2.54 cm^2. The permeation membrane used was human skin of the abdominal area (0.400 mm thick) from repair surgery and previously treated. This thickness covers the epidermis and dermis above the vascular plexus. […]

## O=C1C=CC(=O)c2c(O)cccc21 [Juglone, 5-hydroxy-1,4-naphthalenedione]
  Depth at which the specific fluorescence of Juglone is maintained: less than 120 μm
